In ChEMBL document CHEMBL1133961, “Chemo-enzymatic synthesis of the Galili epitope Gal(alpha)(1-->3)Galbeta(1-->4)GlcNAc on a homogeneously soluble PEG polymer by a multi-enzyme system” (Bioorg Med Chem Lett, 2001):

How the values were obtained:
[1] = (§1) Kinetic data for inhibition of Beta-1,4-GalT by free N-acetyl-glucosamine; parameters: species or system Homo sapiens
[2] = (§2) Kinetic data for inhibition of Beta-1,4-GalT by polymer-supported Nacetylglucosamine.; parameters: species or system Homo sapiens
Homo sapiens = species on record: Homo sapiens; assay: as §1
[3] = as §1; conditions: human
[4] = as §2; conditions: human

CC(=O)N[C@@H]1[C@@H](O)[C@H](O)[C@@H](CO)O[C@H]1O [N-ACETYLGLUCOSAMINE]
Ki [1]: 14.3 mM | Ki [2]: 0.54 mM | Km (Homo sapiens): 34.6 mM | Vmax [3]: 2.62 U mg-1 | Km [4]: 10.5 mM | Vmax [4]: 4.73 U mg-1
